Assay results taken from patent publication US20050038098A1, “Substituted dihydronaphthalene and isochroman compounds for the treatment of metabolic disorders, cancer and other diseases” (priority 2003, published 2005).

Experiments:
[1] = system: carcinogen induced mammary tumors; assay: Carcinogen induced mammary tumors in Sprague Dawley rats; assay type: in vivo, rat; settings: combination treatment with tamoxifen (800 μg/kg) compared to tamoxifen alone
Description: Procedure: Five week-old female Sprague Dawley rats (Harlan) were housed in a fixed 12-12-hr artificial light-dark cycle, and maintained on a standard rodent diet provided ad libitum. Animals were allowed two days to acclimate in this experimental environment prior to the initiation of the study.
To induce mammary tumors, the female […] were injected intraperitoneally with the carcinogen n-nitroso-n-methylurea, in a single dose of 50 mg/kg in acidified normal saline (pH4 w/acetic acid) at a final volume of 10 mg/ml (5 ml/kg). After eight weeks, mammary tumors are detected, and the tumor bearing females are sorted into treatment groups. Once sorted, the animals were housed four per cage and provided rodent diet ad libitum. All animals are treated with test compound or a vehicle for four weeks, during which time, changes in tumor size are monitored. Tumors were classified as regressing, static or progressing.
Treatment groups (n=8/group): • 1) Control (sesame oil) • 2) Tamoxifen (800 μg/kg) • 3) Compound 1 (10 mg/kg) • 4) Compound 1 (20 mg/kg) • 5) Compound 1 (50 mg/kg) • 6) Compound 1 (100 mg/kg) • 7) Compound 1 (20 mg/kg)+Tamox. (800 μg/kg) • 8) Compound 9 (75 mg/kg) • 9) Compound 11 (20 mg/kg) • 10) Compound 11 (20 mg/kg)+Tamox. (800 μg/kg) • 11) Compound 11 (50 mg/kg) […]

[2] = system: THP-1 cells differentiated into macrophages (macrophage foam cells); assay: Cholesterol efflux assay from macrophage foam cells; assay type: cell-based; settings: 1 μM final concentration, 10 μg/ml ApoA-I, 24 hr, vs non treated cells
Description: Cholesterol efflux from macrophage foam cells was assayed as described by Sparrow. et al, J. Biol. Chem., 2002, 277, 10021-10027, which is incorporated herein in its entirety by this reference. THP-1 cells obtained from ATCC (Manassas, VI), were cultured in RPMI medium (Sigma, St-Louis, Mo.), containing 10% fetal calf serum (Sigma, St-Louis, Mo.), […] 2-mercaptoethanol, 1 mM sodium pyruvate, 2 mM L-glutamine, 100 units/ml penicillin, […] streptomycin and 0.25 μg/ml amphotericin B obtained from Sigma (St-Louis, Mo.). The THP-1 cells were differentiated into macrophages in 24 well tissue culture dishes at a density of 0.5 million cells/well by incubation in the same medium plus 100 nM tetradecanoyl phorbol acetate (Sigma, St-Louis, Mo.), for 3 days.
After differentiation into macrophages, the cells were tested for cholesterol efflux as induced by Compound 11 of the invention. Cells were labeled by incubation for 24 hr in fresh growth medium containing [3H]-cholesterol (10 μCi/ml) (PerkinElmer, Boston, Mass.), and 50 μg/ml acetylated-LDL (Frederick, Md.) and 1% Fetal bovine serum (Sigma, St-Louis, Mo.). […] Media were briefly centrifuged to remove non-adherent cells, and then aliquots of both the supernatant and the dissolved cells were counted by liquid scintillation spectrometry to determine radioactivity.

[3] = system: 3T3-L1 pre-adipocytes; settings: comparative compound, stated as already shown; cited from earlier work

Cc1cc2c(cc1-c1cc(/C=C3\SC(=O)NC3=O)ccc1OC(F)(F)F)C(C(C)C)=CCC2(C)C [Compound 1, 5[3-(8-Isopropyl-3,5,5-trimethyl-5,6-dihydro-naphthalen-2-yl)-4-trifluoromethoxy-benzylidene]-thiazolidine-2,4-dione]
effect on mammary tumors in combination with tamoxifen [1]: unexpectedly improved and/or synergistic effects

COc1c(F)cc(/C=C2\SC(=O)NC2=O)c(F)c1-c1cc2c(cc1C)C(C)(C)OCC2(C)C [Compound 11, 5-[2,5-Difluoro-4-methoxy-3-(1,1,4,4,7-pentamethyl-isochroman-6-yl)-benzylidene]-thiazolidine-2,4-dione]
cholesterol efflux [2]: effective for inducing cholesterol efflux | cholesterol efflux ([2]; listed as compound 11): increases cholesterol efflux

Cc1cc2c(cc1-c1cc(/C=C3\SC(=O)NC3=O)ccc1OC(F)(F)F)C(C)(C)CCC2(C)C [Compound 41, 5-[3-(3,5,5,8,8-Pentamethyl-5,6,7,8-tetrahydro-naphthalen-2-yl)-4-trifluoromethoxy-benzylidene]-thiazolidine-2,4-dione]
inducer of adipocyte differentiation [3]: potent inducer of adipocyte differentiation
